Reference: the supplement of paper PMC10307832

How the values were obtained:
Experiment in all cases: relative viability (nuclei count vs DMSO), 5 days (fraction); higher = more cells survive
Vismodegib + Palbociclib = compound: CS(=O)(=O)c1ccc(C(=O)Nc2ccc(Cl)c(-c3ccccn3)c2)c(Cl)c1 [Vismodegib] + CC(=O)c1c(C)c2cnc(Nc3ccc(N4CCNCC4)cn3)nc2n(C2CCCC2)c1=O [Palbociclib] (partner 0.5 µM)
In short: (§1)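 Lung cancer cell lines, seeded in 1536-well plates, were treated the following day by pin tool with a single drug or with five library-drug doses (not always all listed) in √10 steps on top of a fixed anchor-drug dose. Cells were fixed and nuclei stained in one step after 5 days, and nuclei were counted. Relative viability is the nuclei count for treated wells divided by that for vehicle wells, reported as medians of duplicate plates.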

[1] = compound: N#CC[C@H](C1CCCC1)n1cc(-c2ncnc3[nH]ccc23)cn1 [Ruxolitinib] + CC(=O)c1c(C)c2cnc(Nc3ccc(N4CCNCC4)cn3)nc2n(C2CCCC2)c1=O [Palbociclib] (partner 0.5 µM)
In short: as §1

VE-821 + AZD7762 = compound: CS(=O)(=O)c1ccc(-c2cnc(N)c(C(=O)Nc3ccccc3)n2)cc1 [VE-821] + NC(=O)Nc1cc(-c2cccc(F)c2)sc1C(=O)N[C@H]1CCCNC1 [AZD7762] (partner 0.2 µM)
In short: as §1

VE-821 + Navitoclax = compound: CS(=O)(=O)c1ccc(-c2cnc(N)c(C(=O)Nc3ccccc3)n2)cc1 [VE-821] + CC1(C)CCC(c2ccc(Cl)cc2)=C(CN2CCN(c3ccc(C(=O)NS(=O)(=O)c4ccc(N[C@H](CCN5CCOCC5)CSc5ccccc5)c(S(=O)(=O)C(F)(F)F)c4)cc3)CC2)C1 [Navitoclax] (partner 0.5 µM)
In short: as §1

| Cell Line | relative viability (Vismodegib + Palbociclib; first compound 0.08 µM) | relative viability (Vismodegib + Palbociclib; first compound 0.8 µM) | relative viability (Vismodegib + Palbociclib; first compound 2.53 µM) | relative viability (Vismodegib + Palbociclib; first compound 8 µM) | relative viability ([1]; first compound 0.08 µM) | relative viability ([1]; first compound 0.253 µM) | relative viability ([1]; first compound 0.8 µM) | relative viability ([1]; first compound 2.53 µM) | relative viability ([1]; first compound 8 µM) | relative viability (VE-821 + AZD7762; first compound 0.08 µM) | relative viability (VE-821 + AZD7762; first compound 0.253 µM) | relative viability (VE-821 + AZD7762; first compound 0.8 µM) | relative viability (VE-821 + AZD7762; first compound 2.53 µM) | relative viability (VE-821 + AZD7762; first compound 8 µM) | relative viability (VE-821 + Navitoclax; first compound 0.08 µM) | relative viability (VE-821 + Navitoclax; first compound 0.253 µM) | relative viability (VE-821 + Navitoclax; first compound 0.8 µM) | relative viability (VE-821 + Navitoclax; first compound 2.53 µM) | relative viability (VE-821 + Navitoclax; first compound 8 µM) | relative viability (Vismodegib + Palbociclib; first compound 0.253 µM) |
| --- | --- | --- | --- | --- | --- | --- | --- | --- | --- | --- | --- | --- | --- | --- | --- | --- | --- | --- | --- | --- |
| NCI-H441 | 0.203 | 0.196 | 0.243 | 0.24 | 0.218 | 0.206 | 0.302 | 0.241 | 0.309 | 1.28 | 0.966 | 0.93 | 0.69 | 0.478 | 0.858 | 0.673 | 0.38 | 0.768 | 0.563 | – |
| NCI-H1437 | 0.305 | 0.309 | 0.311 | 0.325 | 0.541 | 0.41 | 0.448 | 0.417 | 0.378 | 1.13 | 1.12 | 0.956 | 1.11 | 0.514 | 1.17 | 1.11 | 1.01 | 1.12 | 1.04 | 0.303 |
| EPLC-272H | 0.307 | 0.355 | 0.342 | 0.311 | 0.285 | 0.331 | 0.38 | 0.365 | 0.412 | 0.163 | 0.149 | 0.2 | 0.188 | 0.127 | 1.52 | 1.13 | 1.33 | 1.12 | 1.35 | 0.305 |
| LOU-NH91 | 0.536 | 0.496 | 0.523 | 0.553 | 0.61 | 0.526 | 0.52 | 0.532 | 0.53 | 0.796 | 0.711 | 0.823 | 0.717 | 0.681 | 0.75 | 0.732 | 0.592 | 0.777 | 0.564 | 0.582 |
| RERF-LC-KJ | 1.03 | 1.08 | 1.02 | 1.14 | 1.03 | 1.13 | 1.25 | 1.13 | 0.934 | 0.994 | 0.975 | 0.974 | 1.03 | 0.688 | 0.94 | 0.824 | 0.881 | 0.671 | 0.651 | 1 |
